{"source": "ChEMBL document CHEMBL1141953", "about": "“Synthesis and structure-activity relationships of novel benzene sulfonamides with potent binding affinity for bovine carbonic anhydrase II” (Bioorg Med Chem Lett, 2005)", "biological_target": "Carbonic anhydrase 2 (Bos taurus, UniProt P00921)", "sequence (P00921 whole entry)": "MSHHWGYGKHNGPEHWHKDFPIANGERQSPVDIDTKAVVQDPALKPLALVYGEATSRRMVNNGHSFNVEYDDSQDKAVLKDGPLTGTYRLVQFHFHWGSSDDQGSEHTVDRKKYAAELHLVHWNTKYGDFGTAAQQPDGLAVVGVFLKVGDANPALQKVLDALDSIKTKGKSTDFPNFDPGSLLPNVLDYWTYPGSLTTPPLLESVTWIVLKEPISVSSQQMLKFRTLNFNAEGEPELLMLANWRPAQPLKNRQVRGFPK", "experiment": "Displacement of DNSA from CAII in bovine erythrocytes"}
{"molecule": "NS(=O)(=O)c1ccc(C(=O)OC/C=C/CO)cc1", "values": [{"measurement": "Ki", "value": 5.3, "unit": "nM"}]}
{"molecule": "NS(=O)(=O)c1ccc(C(=O)OC/C=C\\CO)cc1", "values": [{"measurement": "Ki", "value": 9.1, "unit": "nM"}]}
{"molecule": "NS(=O)(=O)c1ccc(C(=O)OC/C=C\\COC(=O)c2ccc(S(N)(=O)=O)cc2)cc1", "values": [{"measurement": "Ki", "value": 9.3, "unit": "nM"}]}
{"molecule": "NS(=O)(=O)c1ccc(C(=O)OC/C=C/COC(=O)c2ccc(S(N)(=O)=O)cc2)cc1", "values": [{"measurement": "Ki", "value": 4.9, "unit": "nM"}]}
{"molecule": "C=CCCCOC(=O)c1ccc(S(N)(=O)=O)cc1", "values": [{"measurement": "Ki", "value": 7.7, "unit": "nM"}]}
{"molecule": "NS(=O)(=O)c1ccc(C(=O)OC/C=C/COC(=O)c2ccccc2)cc1", "values": [{"measurement": "Ki", "value": 4.7, "unit": "nM"}]}
{"molecule": "C=CCOC(=O)c1ccc(S(N)(=O)=O)cc1", "values": [{"measurement": "Ki", "value": 8.6, "unit": "nM"}]}
